Experimental data published in patent publication EP0245209A1, “Milbemycin derivatives, their preparation and their use as pesticides” (CIBA-GEIGY AG, priority 1986, dated 1987).

Tests used:
Type in all cases: in vivo
[1] = test system: LI-Larven von Lucilia sericata; assay: Action against L1 larvae of Lucilia sericata (larval culture medium, mortality); conditions: reduced concentration of 100 ppm, after 4 days; for mortality at 100 ppm: Lucilia sericata, 96 h, read-out: Wirkung (Mortalitätsrate)
Protocol: Beispiel B.2: Wirkung gegen LI-Larven von Lucilia sericata
(§1) 1 ml einer wässrigen Suspension der zu prüfenden Aktivsubstanz werden so mit 3 ml eines speziellen Larvenzuchtmediums bei ca. 50°C vermischt, dass ein Homogenisat von wahlweise 250 ppm oder 100 ppm Wirkstoffgehalt entsteht. In jede Reagenzglas-Probe werden ca. 30 Lucilia-Larven (L1) eingesetzt. Nach 4 Tagen wird die Mortalitätsrate bestimmt. Die Verbindungen aus den Herstellungsbeispielen zeigen bei 250 ppm eine Wirkung von 100 %, wobei Verbindungen aus den Herstellungsbeispielen diese Wirkung auch noch bei der reduzierten Wirkstoffkonzentration von 100 ppm erzielen, wie beispielsweise die Verbindungen Nr. 1.10, 1.18, 1.26, 1.34, 1.39, 1.43, 1.46, 1.54, 1.58, 1.62, 1.82, 1.90 und 1.114.

[2] = test system: Ll-Larven von Lucilia cuprina; assay: Action against L1 larvae of Lucilia cuprina (as B.2); conditions: niedrigere Konzentrationen (below 100 ppm)
Protocol: as §1
Beispiel B.3: Wirkung gegen Ll-Larven von Lucilia cuprina
Der Test wird wie unter B.2 beschrieben durchgeführt, jedoch mit Larven von Lucilia cuprina. […] Bei manchen Verbindungen wird dieser Effekt bereits mit niedrigeren Konzentrationen erreicht, beispielsweise mit den Verbindungen Nr. 1.34, 1.90 und 1.114.

Aedes aegypti = assay: Larvicidal action against Aedes aegypti (larvae in water); conditions: niedrigere Konzentrationen (below 3 ppm)
Protocol: Beispiel B.10: Larvizidwirkung gegen Aedes aegypti
Auf die Oberfläche von 150 ml Wasser, das sich in einem Behälter befindet, wird soviel einer 0,1 %igen acetonischen Lösung des Wirkstoffes pipettiert, dass Konzentrationen von wahlweise 12,5 ppm, 3,3 ppm und 1,6 ppm erhalten werden. Nach Verdunsten des Acetons wird der Behälter mit ca. 30-40 3 Tage alten Aedes-Larven beschickt. Nach 1, 2 und 5 Tagen wird die Mortalität geprüft.

Spodoptera littoralis = assay: Insecticidal stomach-poison action on Spodoptera littoralis (sprayed cotton plants); conditions: niedrigere Konzentrationen (below 12,5 ppm); L1 larvae
Protocol: Beispiel B.6: Insektizide Frassgift-Wirkung bei Spodoptera littoralis
Eingetopfte Baumwollpflanzen im 5-Blatt-Stadium werden mit einer acetonisch/wässrigen Versuchslösung besprüht, die 3, 12,5 oder 50 ppm der zu prüfenden Verbindung enthält.
Nach dem Antrocknen des Belags werden die Pflanzen mit ca. 30 Larven (LI-Stadium) von Spodoptera littoralis besetzt. Pro Versuchsverbindung und pro Test-Spezies verwendet man zwei Pflanzen. Der Versuch wird bei ca. 24°C und 60 % relativer Luftfeuchtigkeit durchgeführt. Auswertungen und Zwischenauswertungen auf moribunde Tiere, Wachstum und Larven und Frassschäden erfolgen nach 24 Stunden, 48 Stunden und 72 Stunden.

[3] = test system: OP-sensible Tetranychus urticae; assay: Action against plant-damaging acarids, OP-sensitive Tetranychus urticae (sprayed bean plants); conditions: niedrigere Konzentrationen (below 1,6 ppm); after seven days
Protocol: Beispiel B.7: Wirkung gegen pflanzenschädigende Akariden OP-sensible Tetranychus urticae
Die Primärblätter von Bohnenpflanzen (Phaseolus vulgaris) werden 16 Stunden vor dem Versuch mit einem durch T. urticae infestierten, aus einer Massenzucht stammenden Blattstück belegt. […] Die Temperatur in der Gewächshauskabine beträgt ca. 25°C.
Nach sieben Tagen wird unter dem Binokular auf Prozentsatz mobiler Stadien (Adulte und Nymphen) und auf vorhandene Eier ausgewertet.

Meloidogyne incognita = assay: Soil nematicidal action against Meloidogyne incognita (tomato plants, root-knot index); conditions: after 4 weeks
Protocol: Beispiel B.4: Bodennematizide Wirkung gegen Meloidogyne incognita
(§2) Eier von Meloidogyne incognita werden in Sand eingemischt. Dieses Gemisch wird dann in 200 ml fassende Tontöpfe eingebracht (5000 Eier pro Topf). Am gleichen Tag wird pro Topf eine 3 Wochen alte Tomatenpflanze gepflanzt und der aus 50 %-igem Emulsionskonzentrat formulierte Wirkstoff mittels Druckapplikation in die Töpfe hineingegeben. Die eingetopften Pflanzen werden nun bei einer Temperatur von 26!1°C und einer relativen Luftfeuchtigkeit von 60 % in einem Gewächshaus aufgestellt. Nach Ablauf von 4 Wochen erfolgt eine Evaluierung durch Untersuchung der Pflanzen auf Wurzelgallbildung nach dem sogenannten Wurzelgall-Index ("Knot Index").

Caenorhabditis elegans = assay: Soil nematicidal action against Caenorhabditis elegans (as B.4); conditions: test as B.4
Protocol: as §2
Beispiel B.5: Bodennematizide Wirkung gegen Caenorhabditis elegans
Der Test wird wie unter B.4 beschrieben durchgeführt, jedoch mit Caenorhabditis elegans. Die Verbindungn der Herstellungsbeispiele zeigen in diesem Test eine gute Wirksamkeit. Um eine fast vollständige Hemmung der Reproduktion zu erreichen, genügen bei manchen Verbindungen Konzentrationen von 1 ppm und weniger, wie beispielsweise bei den Verbindungen Nr. 1.39, 1.70 und 1.90 und vor allem Nr. 1.2, 1.3, 1.26, 1.43 und 1.66.

Dermanyssus gallinae = assay: Miticidal action against Dermanyssus gallinae (contact test in glass vessel, mortality); conditions: geringere Wirkstoffkonzentrationen (below 100 ppm); observed three days; 4320 min
Protocol: Beispiel B.1: Milbizide Wirkung gegen Dermanyssus gallinae
2 bis 3 ml einer Testlösung (250, 100 und 10 ppm Aktivsubstanz) werden in einen nach oben offenen Glasbehälter gegeben und ca. 200 Milben in unterschiedlichen Entwicklungsstadien in diesen Behälter eingesetzt. Der Glasbehälter wird mit einem Wattebausch verschlossen und 10 Minuten gleichmässig, bis zur vollständigen [benetzung der Milben geschüttelt. Danach wird der Behälter umgekehrt hingestellt, bis die überschüssige Testlösung von der Watte aufgesogen ist. Der Behälter wird erneut gekehrt und die behandelten Zecken zur Evaluierung der Wirksamkeit der Testsubstanzen drei Tage unter Laborbedingungen beobachtet, wobei die Mortalität als Massstab für Wirksamkeit herangezogen wird.

Aphis craccivora = assay: Contact action on Aphis craccivora (sprayed pea seedlings); conditions: niedrigere Konzentrationen (below 25 ppm); after 3 days
From the text: Beispiel B.9: Kontaktwirkung auf Aphis craccivora
Erbsenkeimlinge, die mit sämtlichen Entwicklungsstadien der Laus infiziert sind, werden mit einer aus einem Emulsionskonzentrat hergestellten Wirkstofflösung besprüht, die wahlweise 50 ppm, 25 ppm oder 12,5 ppm Wirkstoff enthält. Nach 3 Tagen wird auf mehr als 80 % tote bzw. abgefallene Blattläuse ausgewertet. Nur bei dieser Wirkungshöhe wird ein Präparat als wirksam eingestuft.

Abtötung (Aphis craccivora) [%]	Molecule	Abtötung sämtlicher Larven (Aedes aegypti)	Abtötung (Spodoptera littoralis)	Abtötung [3]	Wirkung (Mortalität) (Dermanyssus gallinae) [%]	mortality at 100 ppm [1] [%]	further results
–	13ß-(9-Fluorenyl-methoxy)-carbonyloxy-milbemycin A4 [1.114]	vollständige Abtötung	–	–	–	–	Wirkung (Mortalitätsrate) [1]: 100%; Vernichtung des Schädlings [2]: vollständige Vernichtung
–	13β-(Cyclohexyloxycarbonyloxy)-milbemycin A4 [1.82]	vollständige Abtötung	vollständige Abtötung	vollständige Abtötung	–	–	Wirkung (Mortalitätsrate) [1]: 100%
–	13β-([-]-Menthyloxy)-carbonyloxy-milbemycin A4 [1.90]	vollständige Abtötung	–	–	–	–	Wirkung (Mortalitätsrate) [1]: 100%; Vernichtung des Schädlings [2]: vollständige Vernichtung; Konzentration für fast vollständige Hemmung der Reproduktion (Meloidogyne incognita): ≤ 1 ppm; Konzentration für fast vollständige Hemmung der Reproduktion (Caenorhabditis elegans): ≤ 1 ppm
100	CC[C@H]1O[C@]2(CC[C@@H]1C)C[C@@H]1C[C@@H](C/C=C(\C)[C@H](OC(=O)OC)[C@@H](C)/C=C/C=C3\CO[C@@H]4[C@H](O)C(C)=C[C@@H](C(=O)O1)[C@]34O)O2 [1.2, 13ß-(Methoxycarbonyloxy)-milbemycin A4]	–	–	–	100	–	–
100	COC(=O)O[C@H]1/C(C)=C/C[C@@H]2C[C@@H](C[C@]3(CC[C@H](C)[C@@H](C(C)C)O3)O2)OC(=O)[C@@H]2C=C(C)[C@@H](O)[C@H]3OC/C(=C\C=C\[C@@H]1C)[C@]32O [1.3, 13ß-(Methoxycarbonyloxy)-milbemycin D]	–	vollständige Abtötung	vollständige Abtötung	100	–	–
100	CC[C@H]1O[C@]2(CC[C@@H]1C)C[C@@H]1C[C@@H](C/C=C(\C)[C@H](OC(=O)OC(C)C)[C@@H](C)/C=C/C=C3\CO[C@@H]4[C@H](O)C(C)=C[C@@H](C(=O)O1)[C@]34O)O2 [1.10, 13ß-Isopropyloxycarbonyloxy-milbemycin A4]	vollständige Abtötung	vollständige Abtötung	vollständige Abtötung	100	100	–
–	CC[C@H]1O[C@]2(CC[C@@H]1C)C[C@@H]1C[C@@H](C/C=C(\C)[C@H](OC(=O)OCCBr)[C@@H](C)/C=C/C=C3\CO[C@@H]4[C@H](O)C(C)=C[C@@H](C(=O)O1)[C@]34O)O2 [1.18, 13ß-(2-Bromäthoxy)-carbonyloxy-milbemycin A4]	–	–	–	100	100	–
–	CC[C@H]1O[C@]2(CC[C@@H]1C)C[C@@H]1C[C@@H](C/C=C(\C)[C@H](OC(=O)OCC(Cl)(Cl)Cl)[C@@H](C)/C=C/C=C3\CO[C@@H]4[C@H](O)C(C)=C[C@@H](C(=O)O1)[C@]34O)O2 [1.26, 13ß-[(2,2,2-Trichlorethoxy)-carbonyloxy]-milbemycin A4]	vollständige Abtötung	vollständige Abtötung	–	–	100	–
100	CC[C@H]1O[C@]2(CC[C@@H]1C)C[C@@H]1C[C@@H](C/C=C(\C)[C@H](OC(=O)OC(C)(C)C(Cl)(Cl)Cl)[C@@H](C)/C=C/C=C3\CO[C@@H]4[C@H](O)C(C)=C[C@@H](C(=O)O1)[C@]34O)O2 [1.34, 13ß-[(1,1-Dimethyl-2,2,2-trichlorethoxy)-carbonyloxy]-milbemycin A4]	vollständige Abtötung	vollständige Abtötung	vollständige Abtötung	–	100	Vernichtung des Schädlings [2]: vollständige Vernichtung
100	C=COC(=O)O[C@H]1/C(C)=C/C[C@@H]2C[C@@H](C[C@]3(CC[C@H](C)[C@@H](C(C)C)O3)O2)OC(=O)[C@@H]2C=C(C)[C@@H](O)[C@H]3OC/C(=C\C=C\[C@@H]1C)[C@]32O [1.39, 13ß-(Vinyloxycarbonyloxy)-milbemycin D]	–	–	–	100	100	–
100	C=CCOC(=O)O[C@H]1/C(C)=C/C[C@@H]2C[C@@H](C[C@]3(CC[C@H](C)[C@@H](C(C)C)O3)O2)OC(=O)[C@@H]2C=C(C)[C@@H](O)[C@H]3OC/C(=C\C=C\[C@@H]1C)[C@]32O [1.43, 13β-(Allyloxycarbonyloxy)-milbemycin D]	–	–	–	100	100	–
–	CC[C@H]1O[C@]2(CC[C@@H]1C)C[C@@H]1C[C@@H](C/C=C(\C)[C@H](OC(=O)OCc3ccccc3)[C@@H](C)/C=C/C=C3\CO[C@@H]4[C@H](O)C(C)=C[C@@H](C(=O)O1)[C@]34O)O2 [1.46, 13β-Benzyloxycarbonyloxy-milbemycin A4]	–	–	–	100	100	–
100	CC[C@H]1O[C@]2(CC[C@@H]1C)C[C@@H]1C[C@@H](C/C=C(\C)[C@H](OC(=O)Oc3ccccc3)[C@@H](C)/C=C/C=C3\CO[C@@H]4[C@H](O)C(C)=C[C@@H](C(=O)O1)[C@]34O)O2 [1.54, 13ß-Phenoxycarbonyloxy-milbemycin A4]	vollständige Abtötung	vollständige Abtötung	–	–	100	–
–	CC[C@H]1O[C@]2(CC[C@@H]1C)C[C@@H]1C[C@@H](C/C=C(\C)[C@H](OC(=O)Oc3ccc([N+](=O)[O-])cc3)[C@@H](C)/C=C/C=C3\CO[C@@H]4[C@H](O)C(C)=C[C@@H](C(=O)O1)[C@]34O)O2 [1.58, 13ß-(4-Nitrophenoxy)-carbonyloxy-milbemycin A4]	vollständige Abtötung	–	–	–	100	–
–	CC[C@H]1O[C@]2(CC[C@@H]1C)C[C@@H]1C[C@@H](C/C=C(\C)[C@H](OC(=O)Oc3ccc(C(=O)OC)cc3)[C@@H](C)/C=C/C=C3\CO[C@@H]4[C@H](O)C(C)=C[C@@H](C(=O)O1)[C@]34O)O2 [1.62, 13ß-(4-Methoxycarbonylphenoxy)-carbonyloxy-milbemycin A4]	vollständige Abtötung	–	–	–	100	–
–	CC[C@H]1O[C@]2(CC[C@@H]1C)C[C@@H]1C[C@@H](C/C=C(\C)[C@H](OC(=O)OCC(Cl)(Cl)C(F)(F)F)[C@@H](C)/C=C/C=C3\CO[C@@H]4[C@H](O)C(C)=C[C@@H](C(=O)O1)[C@]34O)O2 [1.98, 13ß-(3,3,3-Trifluor-2,2-dichlor-propyloxy)-carbonyloxy-milbemycin A4]	vollständige Abtötung	vollständige Abtötung	vollständige Abtötung	–	–	–
